According to patent US20190008848A1, “IDENTIFICATION OF ADDITIONAL ANTI-PERSISTER ACTIVITY AGAINST BORRELIA BURGDORFERI FROM AN FDA DRUG LIBRARY” (THE JOHNS HOPKINS UNIVERSITY, priority 2015, published 2019):
Structures can show the parent of a compound that is named as a salt. Where two headings read alike, the source gives them in different places. Bridge positions count the residues as written; N and C are the ends. Square brackets hold non-standard residues; d marks the D form. Peptide text beside a SMILES is read from it. * marks the point of attachment. Ileψ(thiazoline)Cys = CC[C@H](C)[C@H](N)C1=N[C@H](C(=O)*)CS1; dOrn = NCCC[C@@H](N)C(=O)O

How the values were obtained:
[1] = test system: stationary phase B. burgdorferi; assay: Residual viable B. burgdorferi by epifluorescence microscope counting after drug exposure; settings: for viability at 50 µM: Borreliella burgdorferi, 168 h, read-out: Residual viable cells (Microscopy)
Procedure: (§1) Borrelia burgdorferi strain B31 (ATCC35210) was received from the […] (Manassas, Va., USA) and was grown in BSK-H medium (HiMedia Laboratories, Mumbai, India) and 6% rabbit serum (Sigma Aldrich, St. Louis, Mo., USA). The culture was filtered and sterilized using a […] and incubated in capped sterile 50 mL conical tubes (BD Biosciences, CA, USA) at 33° C. for 7 days without antibiotics until the culture reached stationary phase.
(§2) The cultures were examined using a Nikon Eclipse E800 microscope with differential interference contrast and epifluorescent illumination. The pictures were captured using a SPOT slider color camera. A SYBR Green I/PI assay was used to assess the viability of the bacterial sample using the ratio of live to dead B. burgdorferi (measured with green and red fluorescence, respectively) as measured by a plate reader.
(§3) Briefly, prediluted drug stock (10 μL) was added to 7 day old stationary phase B. burgdorferi culture (90 μL) to achieve a 50 μM final drug concentration per well. The plates were then incubated at 33° C. for 7 days at which point the SYBR/PI rapid viability assay was performed in a fluorescence plate reader to obtain the green-red fluorescence ratio.

[2] = test system: stationary phase B. burgdorferi; assay: SYBR Green I/PI viability assay (drug library screen, plate reader); settings: for viability at 50 µM: Borreliella burgdorferi, 168 h; for activity against stationary phase B. burgdorferi (in words): screen at 50 μM, 7 days; for Residual viable cells (SYBR Green/PI): Table 1; for Residual viable cells (SYBR/PI): Table 3
Procedure: as §1, §2, §3

[3] = read-out: Residual viable cells (SYBR Green/PI), Table 1, drugs 50 μM, 7 day old stationary phase cells treated for 7 days
[4] = read-out: Residual viable cells (SYBR/PI), Table 3, drugs 50 μM, 7-day old stationary phase cells treated for 7 days
[5] = Table 1, drugs 50 μM, 7 day old stationary phase cells treated for 7 days
[6] = Table 3, drugs 50 μM, 7-day old stationary phase cells treated for 7 days
[7] = drugs 50 μM, 7 day old stationary phase cells treated for 7 days
[8] = drugs 50 μM, 7-day old stationary phase cells treated for 7 days
[9] = read-out: Residual viable cells (SYBR Green/PI)
[10] = read-out: Residual viable cells (SYBR/PI)

Compound	viability at 50 µM [1] [%]	viability at 50 µM [2, 3] [%]	viability at 50 µM [2, 4] [%]	further results
CC1(C)S[C@@H]2[C@H](NC(=O)[C@H](N)c3ccc(O)cc3)C(=O)N2[C@H]1C(=O)O [Amoxicillin]	76	76	76	–
Penimepicycline	–	–	–	Residual viable cells (Microscopy) [1]: 60%
CO[C@H]1/C=C/O[C@@]2(C)Oc3c(C)c([O-])c4c(O)c(cc(O)c4c3C2=O)NC(=O)/C(C)=C\C=C\[C@H](C)[C@H](O)[C@@H](C)[C@@H](O)[C@@H](C)[C@H](OC(C)=O)[C@@H]1C.[Na+] [Rifamycin SV]	–	–	–	Residual viable cells (Microscopy) [1]: 60%
c1ccc(-c2ccc(C(c3ccccc3)n3ccnc3)cc2)cc1 (stereo not shown) [Bifonazole]	50	48	48	activity against stationary phase B. burgdorferi (in words) [2]: reasonable activity
CC(=O)N[C@H]1[C@H]([C@H](O)[C@H](O)CO)OC(C(=O)O)=C[C@@H]1N=C(N)N [Zanamivir]	60	49	49	activity against stationary phase B. burgdorferi (in words) [2]: good activity
CN[C@@H]1C[C@@H](c2ccc(Cl)c(Cl)c2)c2ccccc21.Cl [Indatraline, Indatraline hydrochloride]	–	–	–	Residual viable cells (Microscopy) [1, 5]: 43%; Residual viable cells (Microscopy) [1, 6]: 43%; Residual viable cells (SYBR Green/PI) [2, 7]: 51%; Residual viable cells (SYBR/PI) [2, 8]: 51%; activity against stationary phase B. burgdorferi (in words) [2]: high activity
C=CC1=C(C(=O)O)N2C(=O)[C@@H](NC(=O)/C(=N\OCC(=O)O)c3csc(N)n3)[C@H]2SC1 [Cefixime]	56	56	56	–
Cc1nc(NS(=O)(=O)c2ccc(N)cc2)oc1C [Sulfamoxole]	55	57	57	–
CC[C@H]1OC(=O)[C@H](C)[C@@H](O[C@H]2C[C@@](C)(OC)[C@@H](O)[C@H](C)O2)[C@H](C)[C@@H](O[C@@H]2O[C@H](C)C[C@H](N(C)C)[C@H]2O)[C@](C)(O)C[C@@H](C)/C(=N\OCOCCOC)[C@H](C)[C@@H](O)[C@]1(C)O [Roxithromycin]	65	62	62	–
CCc1nc(N)nc(N)c1-c1ccc(Cl)cc1 [Pyrimethamine]	55	45	45	–
Mepartricin	–	–	–	Residual viable cells (Microscopy) [1, 5]: 60%; Residual viable cells (SYBR Green/PI) [2, 7]: 43%; Residual viable cells (SYBR/PI) [2, 8]: 43%; activity against stationary phase B. burgdorferi (in words) [2]: reasonable activity
CC(C)(C)C(=O)C(Oc1ccc(Cl)cc1)n1ccnc1 (stereo not shown) [Climbazole]	71	–	62	activity against stationary phase B. burgdorferi (in words) [2]: reasonable activity
C[C@@H]1CC[C@H]2[C@@H](C)C(=O)O[C@@H]3O[C@@]4(C)CC[C@@H]1[C@]32OO4 [Artemesinin]	45	49	49	activity against stationary phase B. burgdorferi (in words) [2]: good activity
Nc1nc2c(ncn2CCC(CO)CO)c(=O)[nH]1 [Penciclovir]	60	64	64	–
C[C@]1(Cn2ccnn2)[C@H](C(=O)O)N2C(=O)C[C@H]2S1(=O)=O [Tazobactam]	56	54	54	–
Nc1nc(=O)[nH]cc1F [Flucytosine (5-Fluorocytosine), 5-Fluorocytosine]	66	–	68	–
C=C(NC(=O)C(=C)NC(=O)c1csc(C2=N[C@@H]3c4csc(n4)[C@H]4NC(=O)c5csc(n5)[C@H]([C@](C)(O)[C@@H](C)O)NC(=O)[C@H]5CSC(=N5)/C(=C/C)NC(=O)[C@H]([C@@H](C)O)NC(=O)c5csc(n5)[C@]3(CC2)NC(=O)[C@H](C)NC(=O)C(=C)NC(=O)[C@H](C)NC(=O)[C@H]([C@@H](C)CC)N[C@@H]2C=Cc3c([C@H](C)O)cc(nc3[C@H]2O)C(=O)O[C@@H]4C)n1)C(N)=O [Thiostrepton]	66	–	–	viability at 50 µM [2, 9]: 43%; viability at 50 µM [2, 10]: 43%
Cc1cc(-n2c(=O)[nH]c(=O)n(C)c2=O)ccc1Oc1ccc(SC(F)(F)F)cc1 [Toltrazuril]	60	43	43	–
CCCCCCCCCC(=O)N[C@@H](Cc1c[nH]c2ccccc12)C(=O)N[C@H](CC(N)=O)C(=O)N[C@@H](CC(=O)O)C(=O)N[C@@H]1C(=O)NCC(=O)N[C@@H](CCCN)C(=O)N[C@@H](CC(=O)O)C(=O)N[C@H](C)C(=O)N[C@@H](CC(=O)O)C(=O)NCC(=O)N[C@H](CO)C(=O)N[C@@H]([C@H](C)CC(=O)O)C(=O)N[C@@H](CC(=O)c2ccccc2N)C(=O)O[C@@H]1C [Daptomycin]	35	28	28	–
c1ccc2c(c1)Nc1ccccc1S2 [Phenothiazine]	53	–	–	viability at 50 µM [2, 9]: 54%; viability at 50 µM [2, 10]: 54%

Compound	viability at 50 µM [1] [%]	viability at 50 µM [2, 3] [%]	viability at 50 µM [2, 4] [%]	further results
CO/N=C(\C(=O)N[C@@H]1C(=O)N2C(C(=O)O)=C(COC(N)=O)CS[C@H]12)c1ccco1 [Cefuroxime]	49	43	–	–
CN1CCCN=C1/C=C/c1cccc(O)c1 [Oxantel]	63	44	44	–
CC[C@H](C)[C@H](N)C1=N[C@H](C(=O)N[C@@H](CC(C)C)C(=O)N[C@H](CCC(=O)O)C(=O)N[C@H](C(=O)N[C@H]2CCCCNC(=O)[C@H](CC(N)=O)NC(=O)[C@@H](CC(=O)O)NC(=O)[C@H](Cc3cnc[nH]3)NC(=O)[C@@H](Cc3ccccc3)NC(=O)[C@H]([C@@H](C)CC)NC(=O)[C@@H](CCCN)NC2=O)[C@@H](C)CC)CS1 [Bacitracin, Bacitracin zinc salt] ({Ileψ(thiazoline)Cys}-L[dE]IK[dOrn]I[dF]H[dD]N; lactam 4-C)	60	47	47	–
Potassium antimonyl tartrate trihydrate [Tartar emetic]	–	–	–	Residual viable cells (Microscopy) [1, 5]: 45%; Residual viable cells (Microscopy) [1, 6]: 45%; Residual viable cells (SYBR Green/PI) [2, 7]: 42%; Residual viable cells (SYBR/PI) [2, 8]: 42%
ClC(Cl)=C(Cl)Cl [Tetrachloroethylene]	53	–	–	viability at 50 µM [2, 10]: 36%
C[C@H]1c2cccc(O)c2C(=O)C2=C(O)[C@]3(O)C(=O)C(C(N)=O)=C(O)[C@@H](N(C)C)[C@@H]3[C@@H](O)[C@@H]21 [Doxycycline]	75	67	67	–
COc1ccc(C[C@H](N)C(=O)N[C@H]2[C@@H](O)[C@H](n3cnc4c(N(C)C)ncnc43)O[C@@H]2CO)cc1 [Puromycin]	48	65	65	–
C=CCCCCCCCCC(=O)O [Undecylenic acid]	74	–	55	–
CC1(C)S[C@@H]2[C@H](NC(=O)C(C(=O)O)c3ccccc3)C(=O)N2[C@H]1C(=O)O (stereo partly shown) [Carbenicillin]	64	46	46	–
O=c1[nH]c(=O)n([C@H]2C[C@H](O)[C@@H](CO)O2)cc1C(F)(F)F [Trifluridine]	–	–	55	–
NC(=O)c1ncn([C@@H]2O[C@H](CO)[C@@H](O)[C@H]2O)n1 [Ribavirin]	–	63	63	–
Cc1cc(C(C#N)c2ccc(Cl)cc2)c(Cl)cc1NC(=O)c1cc(I)cc(I)c1O (stereo not shown) [Closantel]	–	–	56	–
Nc1cc(C(Cl)=C(Cl)Cl)c(S(N)(=O)=O)cc1S(N)(=O)=O [Clorsulon]	–	–	71	–
Nc1ccc(S(=O)(=O)Nc2ccc(Cl)nn2)cc1 [Sulfachlorpyridazine]	–	–	–	viability at 50 µM [2, 10]: 58%
NC(=O)c1cc[n+](CC2=C(C(=O)O)N3C(=O)[C@@H](NC(=O)[C@@H](c4ccccc4)S(=O)(=O)[O-])[C@H]3SC2)cc1 [Cefsulodin]	–	60	60	–
CC1(C)S[C@@H]2[C@H](NC(=O)[C@H](N)c3ccccc3)C(=O)N2[C@H]1C(=O)O [Ampicillin]	–	–	64	–
NCC[C@H](O)C(=O)N[C@@H]1C[C@H](N)[C@@H](O[C@H]2O[C@H](CN)[C@@H](O)[C@H](O)[C@H]2O)[C@H](O)[C@H]1O[C@H]1O[C@H](CO)[C@@H](O)[C@H](N)[C@H]1O [Amikacin]	–	–	57	–
O=[N+]([O-])c1ccc(O)c2ncccc12 [Nitroxoline (8-hydroxy 5-nitroquinoline), 8-hydroxy 5-nitroquinoline]	–	–	66	–
COc1ccc(C[C@H]2NC[C@H](O)[C@H]2OC(C)=O)cc1 [Anisomycin]	–	–	–	Residual viable cells (SYBR/PI) [2, 8]: 68%
O=C(Nc1ccc(C(=O)O)c(O)c1)c1ccccc1 [Benzoylpas, 4-Benzamido salicylic acid, calcium salt]	–	55	55	–
